In DBAASP:
In brackets after ≈: the same amount, converted by molar mass. Several values for one entry are separate records, joined by “and”; a condition that tells them apart may be missing. Identical values can stand only once. Each block holds one molecule with its values, some of them ahead of it.

Experiments:
Test in all cases: ≥ marks a high value that may be exact or a test limit, other limits are often not marked, values filed in µg/mL are converted to µM
[1] = tested on: Bacillus subtilis KCTC 1918
[2] = tested on: Escherichia coli KCTC 1682
[3] = tested on: Listeria monocytogenes KCTC 3710
[4] = tested on: Pseudomonas aeruginosa KCTC 1637
[5] = tested on: Salmonella typhimurium KCTC 1926
[6] = tested on: Staphylococcus aureus KCTC 1621
[7] = tested on: Trichosporon beigelii KCTC 7707
[8] = tested on: Escherichia coli ATCC 25922
[9] = tested on: Klebsiella pneumoniae ST258
[10] = tested on: Mycobacterium tuberculosis H37Rv
[11] = tested on: Mycobacterium tuberculosis
[12] = tested on: Pseudomonas aeruginosa ATCC 27853
[13] = tested on: Staphylococcus aureus ATCC 25923
[14] = tested on: Escherichia coli ATCC 11303
Citrobacter koseri = tested on: Citrobacter koseri
Escherichia coli BL21 = tested on: Escherichia coli BL21
Escherichia coli JM109 = tested on: Escherichia coli JM109
[15] = tested on: Klebsiella pneumoniae CCRC 10694
Pseudomonas aeruginosa = tested on: Pseudomonas aeruginosa
Salmonella enterica = tested on: Salmonella enterica
[16] = tested on: Salmonella typhimurium CCRC 12947
[17] = tested on: Staphylococcus aureus CCRC 12652
[18] = tested on: Staphylococcus aureus CCRC 15211
Staphylococcus xylosus = tested on: Staphylococcus xylosus
[19] = tested on: Streptococcus alactolyticus
[20] = tested on: Vibrio parahaemolyticus CCRC 10806
[21] = tested on: Candida albicans ATCC 2002
[22] = tested on: Candida albicans ATCC 90028
[23] = tested on: Candida parapsilosis ATCC 22019
[24] = tested on: Enterobacter cloacae ATCC 13047
[25] = tested on: Enterococcus faecalis ATCC 29212
Escherichia coli 218 = tested on: Escherichia coli 218
Escherichia coli 37 = tested on: Escherichia coli 37
[26] = tested on: Klebsiella pneumoniae ATCC 700603
Shigella dysenteriae = tested on: Shigella dysenteriae
Staphylococcus aureus 10 = tested on: Staphylococcus aureus 10
Staphylococcus aureus 37 = tested on: Staphylococcus aureus 37
[27] = tested on: Clavibacter michiganensis subsp. michiganensis KACC 20122
[28] = tested on: Bacillus subtilis MTCC 14416
Escherichia coli MG1655 = tested on: Escherichia coli MG1655
[29] = tested on: Staphylococcus aureus ATCC 43300
[30] = tested on: Staphylococcus aureus MTCC 9542
Vibrio cholerae = tested on: Vibrio cholerae

Compound: CC[C@H](C)[C@H](NC(=O)[C@H](CCCCN)NC(=O)[C@H](CCCCN)NC(=O)[C@H](Cc1ccccc1)NC(=O)[C@H](CC(C)C)NC(=O)[C@H](CCCCN)NC(=O)[C@H](CCCCN)NC(=O)[C@H](CC(C)C)NC(=O)[C@H](CCCCN)NC(=O)[C@H](CCCCN)NC(=O)[C@@H](N)Cc1ccccc1)C(=O)N[C@@H](CC(C)C)C(=O)N[C@@H](CCCCN)C(=O)N[C@@H](CC(C)C)C(=O)N[C@@H](CCCCN)C(N)=O [FKKLKKLFKKILKLK]
MIC [1]: 8 µM and 16 µM | MIC [2]: 8 µM (≈ 15.2 µg/mL) | MIC [3]: 4 µM and 8 µM | MIC [4]: 2 µM (≈ 3.81 µg/mL) | MIC [5]: 1 µM and 2 µM | MIC [6]: 8 µM and 16 µM | MIC [7]: 1 µM and 2 µM

Compound: CC[C@H](C)[C@H](N)C(=O)N[C@@H](CCCCN)C(=O)N[C@@H](Cc1c[nH]c2ccccc12)C(=O)N[C@@H](CCCCN)C(=O)N[C@@H](C)C(=O)N[C@H](C(=O)N[C@@H](CC(C)C)C(=O)N[C@@H](CC(=O)O)C(=O)N[C@@H](C)C(=O)N[C@H](C(=O)N[C@@H](CCCCN)C(=O)N[C@@H](CCCCN)C(=O)N[C@H](C(=O)N[C@H](C(N)=O)[C@@H](C)CC)C(C)C)C(C)C)[C@@H](C)CC [IKWKAILDAVKKVI]
MIC (Citrobacter koseri): 2.46 µM (≈ 4 µg/mL) | MIC (Escherichia coli BL21): 4.92 µM (≈ 8 µg/mL) | MIC (Escherichia coli JM109): 4.92 µM (≈ 8 µg/mL) | MIC [15]: 19.7 µM (≈ 32 µg/mL) | MIC (Pseudomonas aeruginosa): 118 µM (≈ 192 µg/mL) | MIC (Salmonella enterica): 19.7 µM (≈ 32 µg/mL) | MIC [16]: 19.7 µM (≈ 32 µg/mL) | MIC [17]: 19.7 µM (≈ 32 µg/mL) | MIC [18]: ≥ 39.4 µM | MIC (Staphylococcus xylosus): 1.23 µM (≈ 2 µg/mL) | MIC [19]: 7.38 µM (≈ 12 µg/mL) | MIC [20]: 9.85 µM (≈ 16 µg/mL)

Compound: NCCCC[C@H](N)C(=O)N[C@@H](Cc1c[nH]c2ccccc12)C(=O)N[C@@H](Cc1c[nH]c2ccccc12)C(=O)N[C@@H](Cc1c[nH]c2ccccc12)C(=O)N[C@@H](CCCN=C(N)N)C(=O)N[C@@H](Cc1c[nH]c2ccccc12)C(N)=O [KWWWRW]
MIC [27]: 12.5 µM and 25 µM and 18.8 µM

The next lines start with results.

MIC [8]: 12.5 µM (≈ 32.2 µg/mL) | MIC [9]: 19.4 µM (≈ 50 µg/mL) | MIC [10]: 18.7 µM (≈ 48.1 µg/mL) | MIC [11]: 18.7 µM (≈ 48.1 µg/mL) | MIC [12]: > 19.4 µM | MIC [13]: 12.5 µM (≈ 32.2 µg/mL)
Compound: CC[C@H](C)[C@H](NC(=O)[C@H](CC(C)C)NC(=O)[C@H](CCCCN)NC(=O)[C@H](CC(C)C)NC(=O)[C@H](C)NC(=O)CNC(=O)[C@H](CCCCN)NC(=O)[C@H](C)NC(=O)[C@H](CC(C)C)NC(=O)[C@H](C)NC(=O)CNC(=O)[C@H](Cc1c[nH]c2ccccc12)NC(=O)[C@@H](N)Cc1ccccc1)C(=O)NCC(=O)N[C@@H](CO)C(=O)N[C@@H](CC(C)C)C(=O)N[C@@H](Cc1ccccc1)C(=O)N[C@@H](CO)C(=O)N[C@@H](CO)C(=O)N[C@@H](Cc1ccccc1)C(=O)N[C@@H](CO)C(=O)N[C@@H](CCCCN)C(=O)N[C@@H](CCCCN)C(=O)N[C@@H](CC(=O)O)C(=O)O [FWGALAKGALKLIGSLFSSFSKKD]

MIC [14]: 11 µM (≈ 29.6 µg/mL)
Compound: CC(C)C[C@H](NC(=O)CNC(=O)CN)C(=O)N[C@@H](CCCCN)C(=O)N[C@@H](CCCCN)C(=O)N[C@@H](CC(C)C)C(=O)NCC(=O)N[C@@H](CCCCN)C(=O)N[C@@H](CCCCN)C(=O)N[C@@H](CC(C)C)C(=O)N[C@@H](CCC(=O)O)C(=O)NCC(=O)N[C@@H](C)C(=O)NCC(=O)N[C@@H](CCCCN)C(=O)N[C@@H](CCCN=C(N)N)C(=O)N[C@H](C(=O)N[C@@H](Cc1ccccc1)C(=O)N[C@@H](CC(N)=O)C(=O)N[C@@H](C)C(=O)N[C@@H](C)C(=O)N[C@@H](CCC(=O)O)C(=O)N[C@@H](CCCCN)C(=O)N[C@@H](C)C(=O)N[C@@H](CC(C)C)C(=O)N1CCC[C@H]1C(=O)O)C(C)C [GGLKKLGKKLEGAGKRVFNAAEKALP]

MIC [21]: ≥ 53.1 µM | MIC [22]: ≥ 53.1 µM | MIC [23]: 26.5 µM (≈ 40 µg/mL) | MIC [24]: ≥ 53.1 µM | MIC [25]: 53.1 µM (≈ 80 µg/mL) | MIC (Escherichia coli 218): ≥ 53.1 µM | MIC (Escherichia coli 37): 26.5 µM (≈ 40 µg/mL) | MIC [26]: 26.5 µM (≈ 40 µg/mL) | MIC [12]: 26.5 µM (≈ 40 µg/mL) | MIC (Pseudomonas aeruginosa): 26.5 µM (≈ 40 µg/mL) | MIC (Shigella dysenteriae): 13.3 µM (≈ 20 µg/mL) | MIC (Staphylococcus aureus 10): ≥ 53.1 µM | MIC (Staphylococcus aureus 37): 13.3 µM (≈ 20 µg/mL) | MIC [13]: 13.3 µM (≈ 20 µg/mL)
Compound: CC[C@H](C)[C@H](N)C(=O)N[C@@H](CC(N)=O)C(=O)N[C@@H](CC(C)C)C(=O)N[C@@H](CCCCN)C(=O)N[C@@H](C)C(=O)N[C@H](C(=O)N[C@@H](C)C(=O)N[C@@H](C)C(=O)N[C@@H](CC(C)C)C(=O)N[C@H](C(=O)N[C@@H](CCCCN)C(=O)N[C@@H](CCCCN)C(=O)N[C@@H](CC(C)C)C(=O)N[C@@H](CC(C)C)C(=O)O)C(C)C)[C@@H](C)CC [INLKAIAALVKKLL]

MIC [28]: 5.15 µM (≈ 12.5 µg/mL) | MIC [25]: 41.2 µM (≈ 100 µg/mL) | MIC (Escherichia coli MG1655): 2.57 µM (≈ 6.25 µg/mL) | MIC [29]: 20.6 µM (≈ 50 µg/mL) | MIC [30]: 2.57 µM (≈ 6.25 µg/mL)
Compound: CC[C@H](C)[C@H](NC(=O)[C@H](CCCCN)NC(=O)[C@@H]1CCCN1C(=O)[C@H](CC(C)C)NC(=O)[C@H](Cc1ccccc1)NC(=O)[C@H](CC(N)=O)NC(=O)[C@H](C)NC(=O)[C@H](C)NC(=O)[C@H](CC(C)C)NC(=O)CNC(=O)[C@H](C)NC(=O)[C@H](CC(C)C)NC(=O)[C@H](CC(C)C)NC(=O)[C@@H]1CCCN1C(=O)[C@@H](N)CC(C)C)C(=O)N[C@@H](Cc1ccccc1)C(=O)N[C@@H](CS)C(=O)N[C@@H](CCCCN)C(=O)N[C@H](C(=O)N[C@H](C(=O)N[C@@H](CCCN=C(N)N)C(=O)N[C@@H](CCCCN)C(N)=O)[C@@H](C)O)[C@@H](C)CC [LPLLAGLAANFLPKIFCKITRK]
MIC (Vibrio cholerae): 5.15 µM (≈ 12.5 µg/mL)
